Test results published in patent publication US10030047B2 (Hoffmann-La Roche Inc., priority 2015, dated 2018).
Values after ≈ are worked out from the molar mass of the structure shown.

These compounds were tested on A. baumannii strain ATCC19606 (assay: Minimum inhibitory concentration (MIC) determination, microbroth dilution (CLSI)). Conditions: Acinetobacter baumannii; A. baumannii ATCC19606; CAMHB; read after 20 hours; >=80% growth inhibition; read-out: ATCC19606 MIC.
Format: cell-based
Method in brief: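 CLSI broth microdilution in cation-adjusted Mueller Hinton broth with twofold compound dilutions and ~5×10^5 CFU/ml inoculum, incubated at 35±2 °C. MIC read after 20 h as lowest concentration inhibiting ≥80% of growth, by eye and OD 600 nm.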

| MIC | SMILES |
| --- | --- |
| 0.5 µg/mL (≈ 0.696 µM) | Cc1cc(Cl)c2c(c1)CNC(=O)[C@H](Cc1c[nH]c3ccccc13)N(C)C(=O)[C@H](CCCCN)NC(=O)[C@H](CCCN)NCc1ccccc1S2 [Example 41, (12S,15S,18S)-15-(4-Amino-butyl)-18-(3-amino-propyl)-4-chloro-12-(1H-indol-3-ylmethyl)-6,13-dimethyl-2-thia-10,13,16,19-tetraaza-tricyclo[19.4.0.0*3,8*]pentacosa-1(25),3,5,7,21,23-hexaene-11,14,17-trione] |
| 1 µg/mL (≈ 1.35 µM) | CN1C(=O)[C@H](CCCCN)NC(=O)[C@H](CCCN)NCc2ccccc2Sc2c(Cl)cc(Cl)cc2CNC(=O)[C@@H]1Cc1c[nH]c2ccccc12 [Example 42, (12S,15S,18S)-15-(4-Amino-butyl)-18-(3-amino-propyl)-4,6-dichloro-12-(1H-indol-3-ylmethyl)-13-methyl-2-thia-10,13,16,19-tetraaza-tricyclo[19.4.0.0*3,8*]pentacosa-1(25),3,5,7,21,23-hexaene-11,14,17-trione] |
| 1 µg/mL (≈ 1.39 µM) | CCN1C(=O)[C@H](CCCCN)NC(=O)[C@H](CCCN)NCc2ccccc2Sc2ccc(Cl)cc2CNC(=O)[C@@H]1Cc1c[nH]c2ccccc12 [Example 43, (12S,15S,18S)-15-(4-Amino-butyl)-18-(3-amino-propyl)-6-chloro-13-ethyl-12-(1H-indol-3-ylmethyl)-2-thia-10,13,16,19-tetraaza-tricyclo[19.4.0.0*3,8*]pentacosa-1(21),3,5,7,22,24-hexaene-11,14,17-trione] |
| 0.5 µg/mL (≈ 0.7 µM) | CCN1C(=O)[C@H](CCCCN)NC(=O)[C@H](CCCN)NCc2ccccc2Sc2ccc(OC)cc2CNC(=O)[C@@H]1Cc1c[nH]c2ccccc12 [Example 44, (12S,15S,18S)-15-(4-Amino-butyl)-18-(3-amino-propyl)-13-ethyl-12-(1H-indol-3-ylmethyl)-6-methoxy-2-thia-10,13,16,19-tetraaza-tricyclo[19.4.0.0*3,8*]pentacosa-1(21),3,5,7,22,24-hexaene-11,14,17-trione] |
| 0.5 µg/mL (≈ 0.696 µM) | CCN1C(=O)[C@H](CCCCN)NC(=O)[C@H](CCCN)NCc2ccccc2Sc2c(Cl)cccc2CNC(=O)[C@@H]1Cc1c[nH]c2ccccc12 [Example 45, (12S,15S,18S)-15-(4-Amino-butyl)-18-(3-amino-propyl)-4-chloro-13-ethyl-12-(1H-indol-3-ylmethyl)-2-thia-10,13,16,19-tetraaza-tricyclo[19.4.0.0*3,8*]pentacosa-1(21),3,5,7,22,24-hexaene-11,14,17-trione] |
| 1 µg/mL (≈ 1.43 µM) | CCN1C(=O)[C@H](CCCCN)NC(=O)[C@H](CCCN)NCc2ccccc2Sc2c(C)cccc2CNC(=O)[C@@H]1Cc1c[nH]c2ccccc12 [Example 46, (12S,15S,18S)-15-(4-Amino-butyl)-18-(3-amino-propyl)-13-ethyl-12-(1H-indol-3-ylmethyl)-4-methyl-2-thia-10,13,16,19-tetraaza-tricyclo[19.4.0.0*3,8*]pentacosa-1(21),3,5,7,22,24-hexaene-11,14,17-trione] |
| 4 µg/mL (≈ 5.81 µM) | CN1C(=O)[C@H](CCCCN)NC(=O)[C@H](CCCN)NCc2ccccc2Sc2ccc(F)cc2CNC(=O)[C@@H]1Cc1c[nH]c2ccccc12 [Example 47, (12S,15S,18S)-15-(4-Amino-butyl)-18-(3-amino-propyl)-6-fluoro-12-(1H-indol-3-ylmethyl)-13-methyl-2-thia-10,13,16,19-tetraaza-tricyclo[19.4.0.0*3,8*]pentacosa-1(25),3,5,7,21,23-hexaene-11,14,17-trione] |
| 2 µg/mL (≈ 2.73 µM) | CNCCCC[C@@H]1NCc2ccccc2Sc2c(Cl)cccc2CNC(=O)[C@H](Cc2c[nH]c3ccccc23)N(C)C(=O)[C@H](CCCCN)NC1=O [Example 48, (12S,15S,18S)-15-(4-Amino-butyl)-4-chloro-12-(1H-indol-3-ylmethyl)-13-methyl-18-(4-methylamino-butyl)-2-thia-10,13,16,19-tetraaza-tricyclo[19.4.0.0*3,8*]pentacosa-1(21),3,5,7,22,24-hexaene-11,14,17-trione] |
| 0.5 µg/mL (≈ 0.681 µM) | COc1cc(Cl)c2c(c1)CNC(=O)[C@H](Cc1c[nH]c3ccccc13)N(C)C(=O)[C@H](CCCCN)NC(=O)[C@H](CCCN)NCc1ccccc1S2 [Example 49, (12S,15S,18S)-15-(4-Amino-butyl)-18-(3-amino-propyl)-4-chloro-12-(1H-indol-3-ylmethyl)-6-methoxy-13-methyl-2-thia-10,13,16,19-tetraaza-tricyclo[19.4.0.0*3,8*]pentacosa-1(25),3,5,7,21,23-hexaene-11,14,17-trione] |
| 0.25 µg/mL (≈ 0.35 µM) | COc1cc(C)c2c(c1)CNC(=O)[C@H](Cc1c[nH]c3ccccc13)N(C)C(=O)[C@H](CCCCN)NC(=O)[C@H](CCCN)NCc1ccccc1S2 [Example 50, (12S,15S,18S)-15-(4-Amino-butyl)-18-(3-amino-propyl)-12-(1H-indol-3-ylmethyl)-6-methoxy-4,13-dimethyl-2-thia-10,13,16,19-tetraaza-tricyclo[19.4.0.0*3,8*]pentacosa-1(25),3,5,7,21,23-hexaene-11,14,17-trione] |
| 4 µg/mL (≈ 5.84 µM) | Cc1cccc2c1Sc1ncccc1CN[C@@H](CCCN)C(=O)N[C@@H](CCCCN)C(=O)N(C)[C@@H](Cc1c[nH]c3ccccc13)C(=O)NC2 [Example 51, (11S,14S,17S)-14-(4-Amino-butyl)-11-(3-amino-propyl)-17-(1H-indol-3-ylmethyl)-16,25-dimethyl-2-thia-4,10,13,16,19-pentaaza-tricyclo[19.4.0.0*3,8*]pentacosa-1(25),3,5,7,21,23-hexaene-12,15,18-trione] |
| 0.5 µg/mL (≈ 0.691 µM) | CN1C(=O)[C@H](CCCCN)NC(=O)[C@H](CCCN)NCc2cccnc2Sc2ccc(Cl)c(F)c2CNC(=O)[C@@H]1Cc1c[nH]c2ccccc12 [Example 52, (11S,14S,17S)-14-(4-Amino-butyl)-11-(3-amino-propyl)-23-chloro-22-fluoro-17-(1H-indol-3-ylmethyl)-16-methyl-2-thia-4,10,13,16,19-pentaaza-tricyclo[19.4.0.0*3,8*]pentacosa-1(25),3(8),4,6,21,23-hexaene-12,15,18-trione] |
| 1 µg/mL (≈ 1.35 µM) | CN1C(=O)[C@H](CCCCN)NC(=O)[C@H](CCCN)NCc2cccnc2Sc2cccc(C(F)(F)F)c2CNC(=O)[C@@H]1Cc1c[nH]c2ccccc12 [Example 53, (11S,14S,17S)-14-(4-Amino-butyl)-11-(3-amino-propyl)-17-(1H-indol-3-ylmethyl)-16-methyl-22-trifluoromethyl-2-thia-4,10,13,16,19-pentaaza-tricyclo[19.4.0.0*3,8*]pentacosa-1(25),3,5,7,21,23-hexaene-12,15,18-trione] |
| 1 µg/mL (≈ 1.38 µM) | CN1C(=O)[C@H](CCCCN)NC(=O)[C@H](CCCN)NCc2cccnc2Sc2c(Cl)ccc(F)c2CNC(=O)[C@@H]1Cc1c[nH]c2ccccc12 [Example 54, (11S,14S,17S)-14-(4-Amino-butyl)-1-(3-amino-propyl)-25-chloro-22-fluoro-17-(1H-indol-3-ylmethyl)-16-methyl-2-thia-4,10,13,16,19-pentaaza-tricyclo[19.4.0.0*3,8*]pentacosa-1(25),3(8),4,6,21,23-hexaene-12,15,18-trione] |
| 0.5 µg/mL (≈ 0.696 µM) | Cc1cc(Cl)cc2c1Sc1ccccc1CN[C@@H](CCCN)C(=O)N[C@@H](CCCCN)C(=O)N(C)[C@@H](Cc1c[nH]c3ccccc13)C(=O)NC2 [Example 55, (12S,15S,18S)-15-(4-Amino-butyl)-18-(3-amino-propyl)-6-chloro-12-(1H-indol-3-ylmethyl)-4,13-dimethyl-2-thia-10,13,16,19-tetraaza-tricyclo[19.4.0.0*3,8*]pentacosa-1(25),3,5,7,21,23-hexaene-11,14,17-trione] |
| 16 µg/mL (≈ 23.3 µM) | CN1C(=O)[C@H](CCCCN)NC(=O)[C@H](CCCN)NCc2cc(F)ccc2Sc2ccccc2CNC(=O)[C@@H]1Cc1c[nH]c2ccccc12 [Example 56, (12S,15S,18S)-15-(4-Amino-butyl)-18-(3-amino-propyl)-23-fluoro-12-(1H-indol-3-ylmethyl)-13-methyl-2-thia-10,13,16,19-tetraaza-tricyclo[19.4.0.0*3,8*]pentacosa-1(25),3,5,7,21,23-hexaene-11,14,17-trione] |
| 0.5 µg/mL (≈ 0.696 µM) | Cc1[nH]c2ccccc2c1C[C@H]1C(=O)NCc2cc(Cl)ccc2Sc2ccccc2CN[C@@H](CCCN)C(=O)N[C@@H](CCCCN)C(=O)N1C [Example 57, (12S,15S,18S)-15-(4-Amino-butyl)-18-(3-amino-propyl)-6-chloro-13-methyl-12-(2-methyl-1H-indol-3-ylmethyl)-2-thia-10,13,16,19-tetraaza-tricyclo[19.4.0.0*3,8*]pentacosa-1(21),3,5,7,22,24-hexaene-11,14,17-trione] |
| 0.5 µg/mL (≈ 0.716 µM) | Cc1cccc2c1Sc1ccccc1CN[C@@H](CCCN)C(=O)N[C@@H](CCCCN)C(=O)N(C)[C@@H](Cc1c(C)[nH]c3ccccc13)C(=O)NC2 [Example 58, (12S,15S,18S)-15-(4-Amino-butyl)-18-(3-amino-propyl)-4,13-dimethyl-12-(2-methyl-1H-indol-3-ylmethyl)-2-thia-10,13,16,19-tetraaza-tricyclo[19.4.0.0*3,8*]pentacosa-1(21),3,5,7,22,24-hexaene-11,14,17-trione] |
| 0.5 µg/mL (≈ 0.664 µM) | Cc1[nH]c2ccccc2c1C[C@H]1C(=O)NCc2cc(Cl)cc(Cl)c2Sc2ccccc2CN[C@@H](CCCN)C(=O)N[C@@H](CCCCN)C(=O)N1C [Example 59, (12S,15S,18S)-15-(4-Amino-butyl)-18-(3-amino-propyl)-4,6-dichloro-13-methyl-12-(2-methyl-1H-indol-3-yl)-2-methyl)-2-thia-10,13,16,19-tetraaza-tricyclo[19.4.0.0*3,8*]pentacosa-1(21),3,5,7,22,24-hexaene-11,14,17-trione] |
| 2 µg/mL (≈ 2.78 µM) | C[C@@H]1NC(=O)[C@H](Cc2c[nH]c3ccccc23)N(C)C(=O)[C@H](CCCCN)NC(=O)[C@H](CCCN)NCc2ccccc2Sc2c(Cl)cccc21 [Example 60, (9S,12S,15S,18S)-15-(4-Amino-butyl)-18-(3-amino-propyl)-4-chloro-12-(1H-indol-3-ylmethyl)-9,13-dimethyl-2-thia-10,13,16,19-tetraaza-tricyclo[19.4.0.0*3,8*]pentacosa-1(25),3,5,7,21,23-hexaene-11,14,17-trione] |
